Here are results for 3 compounds from patent US20230364075A1, “[…] DOSAGE FORMS COMPRISING DEUTETRABENAZINE” (AUSPEX PHARMACEUTICALS, INC., priority 2020, published 2023).

Data set [1] concerns small intestinal (SI) segments. The format is in vivo. The note with it: rat. The text has this:
(§1) Deutetrabenazine is permeable through the small intestinal (SI) segments in a rat perfusion model.

Data set [2] is described as follows: Solubility of deutetrabenazine versus pH. The format is physicochemical. As for the experimental part: as §1
The dosage forms disclosed herein were developed to achieve similar pharmacokinetics (PK) of 2 doses of AUSTEDO® 12 mg tablets with a single daily dose (QD).

On the set-up of data set [3]: species or system human. Conditions: in vivo.
The conditions of data set [4]: in vivo; cited from earlier work.
Data set [5] is described as follows: Particle size distribution by laser diffractometry (Mastersizer 3000). The format is physicochemical. The note with it: drug substance, Table 1. As for the experimental part:
Particle size distribution is determined by means of laser diffractometry. More specifically, the particle size distribution was determined using a Mastersizer 3000 from Malvern Instruments. The particle size determination may be carried out as a wet or dry measurement depending on the sample.
The deutetrabenazine particle size distributions following manufacture (untreated), micronization (air jet mill) and nano-milling (Dyno bead mill) are shown in Table 1.
Using a Mastersizer 3000 (Malvern Instruments), the following settings were used for dry measurement of the micro-milled and unmilled deutetrabenazine:
Using a Mastersizer 3000 (Malvern Instruments), the following settings were used for wet measurement of the nano-milled deutetrabenazine:
Deutetrabenazine particle size was reduced to a nanometer size (<1.0 micron) using a wet Dyno milling process in several passes. The milled deutetrabenazine was dispersed in excipient as above. The dispersion was passed through a 0.3 liter agitator bead mill containing 950 g of very high density zirconium oxide beads. The dispersion was passed through the agitator mill for up to 2 hrs to obtain particle size below 1.0 micron.

Each structure is given as a SMILES string.

In general, solubility refers to the concentration that dissolves in the medium under given conditions. A lower solubility goes with little dissolved substance.

Consider `[2H]C([2H])([2H])Oc1cc2c(cc1OC([2H])([2H])[2H])[C@H]1CC(=O)[C@H](CC(C)C)CN1CC2` [Deutetrabenazine, (RR,SS)-1,3,4,6,7,11b-hexahydro-9,10-di(methoxy-D3)-3-(2-methylpropyl)-2H-benzo[a]quinolizin-2-one], for which the “permeability through small intestinal (SI) segments” value in data set [1] was “permeable”. In data set [1] (in vivo), the ileum absorption result is recorded as “about 0.0006 cm/sec” and the “levels of absorption in the lower GI, order of segments” value is given as “Jejunum<Mid-small intestine<Colon<Ileum”. Further, the solubility result in data set [2] (acidic environment (pH<4)) is recorded as “relatively good solubility”. The solubility in data set [2] (pH ≥4) is under 2300 µg/mL. Further, in data set [3], the “radioactive dose recovered in urine” value is listed as “approximately 80%”. Besides, the “half-life of active metabolites relative to tetrabenazine” value in data set [4] is reported as “increased half-life”.

For the compound `[2H]C([2H])([2H])Oc1cc2c(cc1OC([2H])([2H])[2H])C1CC(=O)C(CC(C)C)CN1CC2` (stereo not shown) [nano-milled], in data set [5], the D10 was found to be 0.07 μm, the D50 was determined as 0.14 μm and the D90 is 0.34 μm.

In the case of `[2H]C([2H])([2H])Oc1cc2c(cc1OC([2H])([2H])[2H])C1CC(=O)C(CC(C)C)CN1CC2` (stereo not shown) [micro-milled], in data set [5], the D10 was 1.08 μm, the D50 worked out at 3.31 μm and the D90 is given as 7.05 μm.
